Ki and Km data for 2 compounds are collected here from PMC4554599 (Bipolar disorders, 2014).

For assay [1], the target named is T1, acyl-CoA synthetase-4 (Acsl4) (Rattus norvegicus, UniProt O35547). The assay is classed as biochemical.
Assay [2] concerns the target T1, acyl-CoA synthetase-4 (Acsl4). The assay can be described thus: Michaelis-Menten kinetics, […]AA to AA-CoA conversion. The assay is classed as biochemical.

T1 sequence (O35547 whole entry): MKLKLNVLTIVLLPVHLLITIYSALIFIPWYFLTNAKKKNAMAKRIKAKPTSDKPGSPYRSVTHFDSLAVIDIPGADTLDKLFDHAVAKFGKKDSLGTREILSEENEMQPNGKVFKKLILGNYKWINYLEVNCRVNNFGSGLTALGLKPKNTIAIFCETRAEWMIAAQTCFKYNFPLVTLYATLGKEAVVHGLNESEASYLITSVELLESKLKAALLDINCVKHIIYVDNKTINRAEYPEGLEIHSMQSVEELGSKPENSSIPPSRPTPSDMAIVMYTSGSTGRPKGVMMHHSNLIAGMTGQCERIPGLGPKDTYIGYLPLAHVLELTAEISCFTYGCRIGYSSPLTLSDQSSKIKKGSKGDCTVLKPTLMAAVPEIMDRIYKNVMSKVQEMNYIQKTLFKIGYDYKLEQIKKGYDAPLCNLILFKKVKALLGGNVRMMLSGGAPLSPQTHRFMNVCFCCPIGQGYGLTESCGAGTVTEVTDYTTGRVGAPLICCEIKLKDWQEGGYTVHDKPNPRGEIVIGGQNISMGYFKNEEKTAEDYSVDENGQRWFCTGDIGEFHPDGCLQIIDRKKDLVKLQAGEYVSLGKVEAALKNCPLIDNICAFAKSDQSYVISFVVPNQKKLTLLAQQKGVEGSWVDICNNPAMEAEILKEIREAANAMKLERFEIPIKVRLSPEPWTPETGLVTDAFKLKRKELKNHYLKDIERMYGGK

Usually Ki stands for a measure of affinity in units of concentration, obtained from inhibition or displacement. Low values mean a stronger hold on the target, high ones a looser hold on the target. Take `CCC(C)C(CC)C(N)=O` (racemic) [VCD, 2-ethyl-3-methyl pentanamide]: in assay [1], the Ki is 6.38 ± 0.63 mM.

One may read the Km as the substrate concentration at which the rate is half of its maximum. As to `CCCCC/C=C\C/C=C\C/C=C\C/C=C\CCCC(=O)O` [AA, arachidonic acid], the Km in assay [2] is 4.63 ± 0.67 µM.
